# Results reported in publication PMC12655719, “Evaluating the Effectiveness of Reference Solvent Solubility Calculations for Binary Mixtures Based on Pure Solvent Solubility: The Case of Phenolic Acids” (Molecules, 2025).
# Assay: Solubility determination of saturated solutions (shaking 24 h at 25 °C, filtration, HPLC/UPLC-UV quantification)
# Assay type: physicochemical
# Details: for log(x1)exp: 1,4-dioxane + Water, code 1 (this work)
# Procedure: In the case of binary mixtures, the organic solvent was mixed with water in appropriate molar fractions. Water was also used as a single-component solvent. For each system, three replicate samples were prepared.
# The prepared samples were placed in an Orbital Shaker ES-20/60 incubator from Biosan (Riga, Latvia) and shaken for 24 h at 25 °C. The temperature was maintained with an accuracy of ±0.1 °C. During the equilibration process, the samples were agitated at a rate of 60 rpm while being thermostated.
# Following equilibration, the samples were filtered through PTFE syringe filters with a 0.22 µm pore size. To prevent precipitation during this step, all test tubes, syringes, and filters were preheated to the corresponding temperature of the solution. Subsequently, an aliquot of the filtrate was transferred to a vial for chromatographic analysis.
# Prior to injection, samples were diluted with methanol and injected into a Luna C18 column (250 × 10 mm) equipped with a guard column, both from Phenomenex (Torrance, CA, USA). The injection volume was 100 µL, and the column temperature was maintained at 30 °C. The mobile phase consisted of 0.5% acetic acid (A) and acetonitrile (B), applied with a linear gradient at a flow rate of 5 mL/min: initially 2% B; 1–7 min, 2–50% B; 7–9 min, 50% B; 9–9.5 min, 50–2% B; and 9–18 min, 2% B. The UV absorbance was monitored in the range of 210–400 nm. The chromatographic system was operated with MassLynx 4.1 software (Waters, […], USA). Quantitative analysis was performed using the TargetLynx application at 293 nm. All samples were analyzed in triplicate (technical replicates).
# The system included the Acquity Binary Solvent Manager, Acquity Sample Manager, and Acquity Column Manager (Waters, Milford, CT, USA). Prior to analysis, samples were diluted with methanol, and 0.3 µL was injected. Separation was performed on a ACQUITY UPLC CSH C18 column (1.7 µm, 2.1 × 30 mm, Waters, Milford, CT, USA) maintained at 40 °C. UV detection was carried out at 293 nm using a tunable dual-wavelength UV/Vis detector (TUV, Waters, Milford, CT, USA). […] Each sample was analyzed in three technical replicates.
# To calculate mole fractions of the solutes, the density of each saturated solution was determined by weighing 1 mL of the sample using an analytical balance (RADWAG AS 110.R2 PLUS; Radwag, Radom, Poland).
structure (smiles),measurement,setting,value
"O=C(O)/C=C/c1ccc(O)c(O)c1 [caffeic acid, Caffeic acid]",log(x1)exp,"x2* 0.00, x3* 1.00, T 25.0 °C",-4.023
same,log(x1)exp,"x2* 0.10, x3* 0.90, T 25.0 °C",-2.614
same,log(x1)exp,"x2* 0.20, x3* 0.80, T 25.0 °C",-1.897
same,log(x1)exp,"x2* 0.30, x3* 0.70, T 25.0 °C",-1.603
same,log(x1)exp,"x2* 0.40, x3* 0.60, T 25.0 °C",-1.455
same,x1 × 102 (mole fraction of solute),"1,4-dioxane-water, x2* = 0.0, 25 °C",0.009 mole fraction × 102
same,x1 × 102 (mole fraction of solute),"1,4-dioxane-water, x2* = 0.1, 25 °C",0.243 mole fraction × 102
same,x1 × 102 (mole fraction of solute),"1,4-dioxane-water, x2* = 0.2, 25 °C",1.269 mole fraction × 102
same,x1 × 102 (mole fraction of solute),"1,4-dioxane-water, x2* = 0.3, 25 °C",2.495 mole fraction × 102
same,x1 × 102 (mole fraction of solute),"1,4-dioxane-water, x2* = 0.4, 25 °C",3.504 mole fraction × 102
same,x1 × 102 (mole fraction of solute),"1,4-dioxane-water, x2* = 0.5, 25 °C",4.260 mole fraction × 102
same,x1 × 102 (mole fraction of solute),"1,4-dioxane-water, x2* = 0.6, 25 °C",4.647 mole fraction × 102
same,x1 × 102 (mole fraction of solute),"1,4-dioxane-water, x2* = 0.7, 25 °C",4.698 mole fraction × 102
same,x1 × 102 (mole fraction of solute),"1,4-dioxane-water, x2* = 0.8, 25 °C",4.232 mole fraction × 102
same,x1 × 102 (mole fraction of solute),"1,4-dioxane-water, x2* = 0.9, 25 °C",2.850 mole fraction × 102
same,x1 × 102 (mole fraction of solute),"1,4-dioxane-water, x2* = 1.0, 25 °C",1.634 mole fraction × 102
same,mole fraction solubility (x1),"1,4-dioxane–water, x2* = 0.0 (pure water), 25 °C",9.0 × 10^−5 mole fraction
same,mole fraction solubility (x1),"1,4-dioxane–water, x2* = 0.7, 25 °C",4.698 × 10^−2 mole fraction
same,x1 × 102 (mole fraction of solute),"4-FM-water, x2* = 0.1, 25 °C",0.785 mole fraction × 102
same,x1 × 102 (mole fraction of solute),"4-FM-water, x2* = 0.2, 25 °C",2.306 mole fraction × 102
same,x1 × 102 (mole fraction of solute),"4-FM-water, x2* = 0.3, 25 °C",4.043 mole fraction × 102
same,x1 × 102 (mole fraction of solute),"4-FM-water, x2* = 0.4, 25 °C",6.072 mole fraction × 102
same,x1 × 102 (mole fraction of solute),"4-FM-water, x2* = 0.5, 25 °C",7.935 mole fraction × 102
same,x1 × 102 (mole fraction of solute),"4-FM-water, x2* = 0.6, 25 °C",10.036 mole fraction × 102
same,x1 × 102 (mole fraction of solute),"4-FM-water, x2* = 0.7, 25 °C",11.977 mole fraction × 102
same,x1 × 102 (mole fraction of solute),"4-FM-water, x2* = 0.8, 25 °C",13.855 mole fraction × 102
same,x1 × 102 (mole fraction of solute),"4-FM-water, x2* = 0.9, 25 °C",15.930 mole fraction × 102
same,x1 × 102 (mole fraction of solute),"4-FM-water, x2* = 1.0, 25 °C",17.932 mole fraction × 102
same,x1 × 102 (mole fraction of solute),"DMSO-water, x2* = 0.1, 25 °C",0.209 mole fraction × 102
same,x1 × 102 (mole fraction of solute),"DMSO-water, x2* = 0.2, 25 °C",1.527 mole fraction × 102
same,x1 × 102 (mole fraction of solute),"DMSO-water, x2* = 0.3, 25 °C",4.718 mole fraction × 102
same,x1 × 102 (mole fraction of solute),"DMSO-water, x2* = 0.4, 25 °C",11.316 mole fraction × 102
same,x1 × 102 (mole fraction of solute),"DMSO-water, x2* = 0.5, 25 °C",20.824 mole fraction × 102
same,x1 × 102 (mole fraction of solute),"DMSO-water, x2* = 0.6, 25 °C",28.915 mole fraction × 102
same,x1 × 102 (mole fraction of solute),"DMSO-water, x2* = 0.7, 25 °C",33.598 mole fraction × 102
same,x1 × 102 (mole fraction of solute),"DMSO-water, x2* = 0.8, 25 °C",34.931 mole fraction × 102
same,x1 × 102 (mole fraction of solute),"DMSO-water, x2* = 0.9, 25 °C",31.904 mole fraction × 102
same,x1 × 102 (mole fraction of solute),"DMSO-water, x2* = 1.0, 25 °C",22.675 mole fraction × 102
same,mole fraction solubility (x1),"DMSO–water, x2* = 0.8, 25 °C",34.931 × 10^−2 mole fraction
same,mole fraction solubility (x1),"pure 1,4-dioxane (x2* = 1.0), 25 °C",1.634 × 10^−2 mole fraction
same,mole fraction solubility (x1),"pure 4-FM (4-formylmorpholine, x2* = 1.0), 25 °C",17.932 × 10^−2 mole fraction
same,mole fraction solubility (x1),"pure DMSO, 25 °C",22.675 × 10^−2 mole fraction
